For orientation: EC50 means the concentration giving half of the maximal effect. Read a high EC50 as a need for much substance.

SMILES strings stand for the structures. Where only a bound is given, the exact number is not on record here.

The source of these data is paper PMC6302903, “Protein and Chemical Determinants of BL-1249 Action and Selectivity for K2P Channels” (ACS Chemical Neuroscience, 2018).

What all share (assay type): cell-based
One assay concerns the target T1, K2P2.1(TREK-1)Δ308 (Mus musculus, UniProt P97438).
T1 construct: and at residue 308, K2P2.1(TREK-1)Δ308; expressed in transfected cells; host or cells: Xenopus laevis oocytes, mRNA injected
Kind of assay: TEVC of C-terminal truncation at residue 308. The note with it: Xenopus oocytes, saturation not reached, fit with upper boundary of 15 (I/I0). From the text: Constructs for murine K2P channels, including K2P2.1(TREK-1) (Gene ID 16526), K2P10.1(TREK-2) (Gene ID 72258), K2P4.1(TRAAK) (Gene ID 16528), K2P5.1(TASK-2) (Gene ID 16529), K2P3.1(TASK-1) (Gene ID 16527), K2P9.1(TASK-3) (Gene ID 223604), and K2P18.1(TRESK) (Gene ID 332396) in pGEMHE/pMO, were used for Xenopus oocyte experiments as previously described.[10],[26] Murine K2P2.1(TREK-1) (Gene ID 16526) was expressed in HEK-293 cells using a pIRES-EGFP construct as previously described.[26] Murine K2P13.1(THIK-1) (Gene ID 217826) and K2P1.1(TWIK-1) (Gene ID 16525) were cloned into pGEMHE/pMO for use in Xenopus oocytes. […]
(§1) Xenopus laevis oocytes were harvested in accordance with UCSF IACUC protocol AN129690 and digested in calcium-free ND-96 (96 mM NaCl, 2 mM KCl, 3.8 mM MgCl2) immediately following harvest, as previously described.[6],[10] […] Defolliculated stage V–VI oocytes were injected with 0.2–6.0 ng of mRNA in 50 nL, and currents were recorded 24–48 h after injection. mRNA was synthesized from plasmid DNA using mMessage mMachine Kit (T7 promoter, Ambion, Life Technologies) and purified using RNEasy Kit (Qiagen). […] Once stabilized basal currents were recorded, compounds were perfused at various concentrations in standard ND96 and currents were allowed to increase to stabilization before recording final current. […]

Another assay concerns the target T2, K2P5.1(TASK-2) (Mus musculus, UniProt F6V9U5).
T2 construct: expressed in transfected cells; host or cells: Xenopus laevis oocytes (mRNA injection, pGEMHE/pMO)
The assay is described as follows: TEVC of K2P5.1(TASK-2) in Xenopus oocytes. The note with it: concentrations up to the solubility limit (∼80 μM). How it is done:
(§2) BL-1249 activates K2P2.1(TREK-1)[18],[40] and K2P10.1(TREK-2),[7] but its effects on other K2P channels have not been characterized. […] In order to test if the original 10 μM assay had missed BL-1249 effects in other K2P channels, we tested concentrations of BL-1249 up to the solubility limit (∼80 μM) against the other K2P subfamily representatives. […]
as §1, with “current. Fold activation upon compound application is expressed as I/I0 (0 mV), derived from the current at 0 mV in the presence of compound divided by the basal current at 0 mV in standard ND96 without compound. Data were analyzed and plotted using Graphpad Prism Version 5 (GraphPad Software, San Diego California USA, www.graphpad.com).” for “current.”

The next assay addresses T3, K2P2.1(TREK-1) G137I (Mus musculus, UniProt P97438, G152I).
T3 construct: expressed in transfected cells; host or cells: Xenopus laevis oocytes, mRNA injected
The assay is described as follows: TEVC of C-type gate activating mutant G137I. The note with it: Xenopus oocytes.
From the text: Diverse types of physical and chemical stimuli activate K2P2.1(TREK-1) by stabilizing the C-type gate and switching the channel into a “leak” mode that is characterized by a loss of outward rectification of the potassium current.[6],[8] Accordingly, we used inside-out patch clamp experiments of K2P2.1(TREK-1) expressed in HEK293 cells to test whether BL-1249 acts on the C-type gate. […] Together with previous single point concentration studies showing the insensitivity of K2P2.1(TREK-1) W275S in mammalian cells,[40] our data provide definitive evidence that BL-1249 activates K2P2.1(TREK-1) by stimulating the C-type gate. […]
as §1

In the next assay the target is T4, K2P18.1(TRESK) (Mus musculus, UniProt Q6VV64).
T4 construct: expressed in transfected cells; host or cells: Xenopus laevis oocytes (mRNA injection, pGEMHE/pMO)
The assay is described as follows: TEVC of K2P18.1(TRESK) in Xenopus oocytes. The note with it: concentrations up to the solubility limit (∼80 μM). Here is the method: as §2
as §1, with “current. Fold activation upon compound application is expressed as I/I0 (0 mV), derived from the current at 0 mV in the presence of compound divided by the basal current at 0 mV in standard ND96 without compound. Data were analyzed and plotted using Graphpad Prism Version 5 (GraphPad Software, San Diego California USA, www.graphpad.com).” for “current.”

T3 sequence (P97438 1-411 isoform P97438-2 G137I): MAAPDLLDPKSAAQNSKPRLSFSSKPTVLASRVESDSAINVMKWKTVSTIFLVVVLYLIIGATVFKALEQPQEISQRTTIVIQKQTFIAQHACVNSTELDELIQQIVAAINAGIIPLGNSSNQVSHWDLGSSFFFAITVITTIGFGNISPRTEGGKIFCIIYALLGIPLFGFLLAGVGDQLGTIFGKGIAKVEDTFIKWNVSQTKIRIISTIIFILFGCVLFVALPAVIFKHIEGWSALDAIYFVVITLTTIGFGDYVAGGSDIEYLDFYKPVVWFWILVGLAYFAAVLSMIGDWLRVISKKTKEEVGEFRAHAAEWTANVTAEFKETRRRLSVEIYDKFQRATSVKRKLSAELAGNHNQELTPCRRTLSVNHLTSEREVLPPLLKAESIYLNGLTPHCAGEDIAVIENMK
T1 sequence (P97438 1-308 isoform P97438-2): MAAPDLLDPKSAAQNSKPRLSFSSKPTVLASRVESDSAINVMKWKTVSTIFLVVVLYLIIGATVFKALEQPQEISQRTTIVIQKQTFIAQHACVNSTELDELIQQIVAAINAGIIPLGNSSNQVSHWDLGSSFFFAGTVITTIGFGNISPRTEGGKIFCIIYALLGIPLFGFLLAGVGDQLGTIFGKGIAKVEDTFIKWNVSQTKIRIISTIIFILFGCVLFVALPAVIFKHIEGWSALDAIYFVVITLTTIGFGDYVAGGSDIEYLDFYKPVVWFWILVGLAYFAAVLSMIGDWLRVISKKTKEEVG
T4 sequence (Q6VV64 whole entry): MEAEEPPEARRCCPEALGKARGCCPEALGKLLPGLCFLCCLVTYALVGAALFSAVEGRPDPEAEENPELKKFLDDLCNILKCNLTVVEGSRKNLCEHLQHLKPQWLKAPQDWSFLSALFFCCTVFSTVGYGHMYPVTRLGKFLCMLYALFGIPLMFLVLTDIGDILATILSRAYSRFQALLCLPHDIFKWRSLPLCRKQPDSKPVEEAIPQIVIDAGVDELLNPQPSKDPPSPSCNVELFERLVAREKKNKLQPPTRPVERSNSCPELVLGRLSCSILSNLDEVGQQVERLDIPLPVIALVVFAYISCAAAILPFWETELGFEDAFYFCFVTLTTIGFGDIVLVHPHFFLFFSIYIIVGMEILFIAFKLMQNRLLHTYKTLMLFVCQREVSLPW
T2 sequence (F6V9U5 1-502): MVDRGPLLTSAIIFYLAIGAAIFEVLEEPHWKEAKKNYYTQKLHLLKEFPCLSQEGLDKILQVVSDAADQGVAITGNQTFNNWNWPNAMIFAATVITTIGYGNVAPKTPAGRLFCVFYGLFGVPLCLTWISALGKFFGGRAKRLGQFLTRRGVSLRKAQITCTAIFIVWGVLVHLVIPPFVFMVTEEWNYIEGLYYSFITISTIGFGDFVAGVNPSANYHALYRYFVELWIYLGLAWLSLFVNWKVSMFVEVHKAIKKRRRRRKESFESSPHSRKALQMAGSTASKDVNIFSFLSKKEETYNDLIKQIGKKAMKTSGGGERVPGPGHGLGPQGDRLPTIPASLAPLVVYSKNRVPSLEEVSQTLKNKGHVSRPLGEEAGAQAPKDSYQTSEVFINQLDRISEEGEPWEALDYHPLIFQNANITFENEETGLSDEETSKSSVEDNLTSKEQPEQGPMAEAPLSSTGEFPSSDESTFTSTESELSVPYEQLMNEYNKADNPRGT

Consider `c1ccc(-c2nnn[nH]2)c(Nc2cccc3c2CCCC3)c1` [BL-1249, (5,6,7,8-tetrahydro-naphthalen-1-yl)-[2-(1H-tetrazol-5-yl)-phenyl]-amine], for which the EC50 on K2P2.1(TREK-1)Δ308 is 35 ± 8 µM. In addition, the “activation of K2P5.1(TASK-2)” value on K2P5.1(TASK-2) is recorded as “failed to find evidence for activation”. Further, on K2P2.1(TREK-1) G137I, the EC50 is over 60 µM and the “sensitivity of K2P2.1(TREK-1) G137I to compound” value is “insensitive”. Also, at K2P18.1(TRESK), the “activation of K2P18.1(TRESK)” value is given as “failed to find evidence for activation”.
